Patent US20250281388A1, “COMPOSITIONS COMPRISING BREVIBACILLA MULTIFUNCTIONAL FERMENTATES AND METHODS OF USE” (Nutrition & Biosciences USA 4, Inc., priority 2022, published 2025)
Entries after “also recorded” stand apart in the source; their conditions may differ.

Experiments:
[1] = Activated ABTS antioxidant assay (absorbance at 405 nm, Trolox calibration); assay type: biochemical
Description: The Brevibacillus laterosporus fermentate was prepared as described in Example 2, using TSB media (1.7% Tryptone, 0.3% Soytone, 0.25% Glucose, 0.5% sodium chloride, 0.25% Potassium phosphate Dibasic) as the growing solution. The fermentate supernatant was first let flow through an Amicon® Ultra Centrifugal Filters with a size cutoff of 30 kDa. The permeate (which was essentially free of cells) was kept and then let flow through another Amicon® Ultra Centrifugal Filters with a size cutoff of 3 kDa. The retentate was concentrated by 10-fold in volume and stored as the final product (i.e., size is greater than 3 kDa and less than 30 kDa), referring as the concentrated fermentate in the subsequent experiments. The 10-fold concentrated fermentate was dosed separately at 2 weight percent into the serum (Table 2) and hydrogel (Table 3) formulations with xanthan gum.
The water-soluble analogue of α-Tocopherol, Trolox, is often used as a reference for characterization the antioxidant properties of a new ingredient in the assay (Reference: “Huang, S. W., Hopia, A., Schwarz, K., Frankel, E. N., & German, J. B. (1996). Antioxidant activity of α-tocopherol and trolox in different lipid substrates: bulk oils vs oil-in-water emulsions. Journal of Agricultural and Food Chemistry, 44 (2), 444-452.”).
A series of Trolox with different concentrations were used as the calibration curve for quantifying the antioxidant properties.
Table 5 summarizes the measured absorbance and the corresponding trolox equivalent (calculated from the Trolox calibration curve) of the fermentate and fermentate-dosed formulations.

[2] = Foam enhancing test (foam height in 50-ml conical tube); assay type: physicochemical; set-up: key: tube marking minus 10 (mL scale); 0 = no foam, 40 = maximum
Description: Foam enhancing capabilities of the Brevibacillus laterosporus A8.11 fermentate supernatant (cell free supernatant) were evaluated in the presence of different categories of surfactants and detergents commonly found in home and personal care cleaning formulations. To evaluate this, a solution of 1% zwitterionic detergent (CHAPS hydrate), 1% solution of the glycolipid biosurfactant type 1 (acidic sophorolipids non-acetylated), a 0.1% solution of glycolipid biosurfactant type 2 (lactonic (di-acetylated) sophorolipids), and 0.1% of the anionic/non-ionic detergent were each prepared with 10% cell free supernatant in a 50-ml conical tube with deionized water for a final volume of 10-mL. Control samples were prepared individually as 1% zwitterionic detergent, 1% solution of the glycolipid biosurfactant type 1, a 0.1% solution of glycolipid biosurfactant type 2, 0.1% of the anionic/non-ionic detergent and 10% cell free supernatant only in a 50-ml conical tube with deionized water for a final volume of 10-mL. All samples were shaken for 30 seconds by hand and left at room temperature to observe foam height. Foam height was measured by the marking on a 50-ml conical tube and subtracted by 10, where a value of 40 is the maximum foam height and a value of 0 indicates no foam.

[3] = system: Pseudomonas aeruginosa (ATCC #15442); assay: Polylysine control of Pseudomonas aeruginosa with or without Acumer 4200 (visual turbidity); assay type: cell-based; details: 37 C overnight
Description: The ability of Polylysine, a known cationic peptide-based food preservative, to suppress the growth of Pseudomonas aeruginosa in the presence and absence of the anionic polymer Acumer 4200 was also evaluated. The test was conducted in scintillation vials inoculated with a 1:100 dilution from an overnight of Pseudomonas aeruginosa (ATCC #15442) allowed to incubate at 37 C overnight. The readout was visual with turbidity as an indicator of Pseudomonas growth.

[4] = Foam stabilizing test (foam height in 50-ml conical tube); assay type: physicochemical; set-up: unit not given beside the values
Description: Foam stabilizing capabilities of the Brevibacillus laterosporus A8.11 fermentate supernatant (cell free supernatant) were evaluated in the presence of different categories of surfactants and detergents commonly found in home and personal care cleaning formulations. To evaluate this, a solution of a 1% non-ionic detergent (Tergitol 15-S-7) and a 1% solution of anionic surfactant (Sodium lauroyl sarcosinate) were each prepared with 10% cell free supernatant in a 50-ml conical tube with deionized water for a final volume of 10-mL. Control samples were prepared individually as 1% non-ionic detergent only, 1% anionic surfactant only and 10% cell free supernatant only in 50-ml conical tubes with deionized water for a final volume of 10-mL. All samples were shaken for 30 seconds by hand and left at room temperature to observe foam height. Foam height was measured by the marking on a 50-ml conical tube and subtracted by 10, where a value of 40 is the maximum foam height and a value of 0 indicates no foam. Foam stabilization was defined as the ability to maintain the starting foam height over multiple timepoints.

[5] = Time 0, 10-mL in deionized water, shaken 30 seconds, 40 = maximum

| Compound | Foam Height [2, 5] | Foam Height ([2]; Time 1 min) | Foam Height ([2]; Time 5 min) | Foam Height ([2]; Time 15 min) | Foam Height ([2]; Time 30 min) | Foam Height ([2]; Time 3 hours) | Foam Height ([2]; Time 24 hours) | further results |
| --- | --- | --- | --- | --- | --- | --- | --- | --- |
| Cc1c(C)c2c(c(C)c1O)CCC(C)(C(=O)O)O2 (stereo not drawn) [Trolox] |  |  |  |  |  |  |  | Measured absorbance ([1]; Trolox 4.7 μM): 1.16; Measured absorbance ([1]; Trolox 9.4 μM): 1.13; Measured absorbance ([1]; Trolox 18.75 μM): 1.09; Measured absorbance ([1]; Trolox 37.5 μM): 0.97; Measured absorbance ([1]; Trolox 75 μM): 0.77; Measured absorbance ([1]; Trolox 150 μM): 0.38 |
| C[C@H](CCC(=O)NCCC[N+](C)(C)CCCS(=O)(=O)[O-])[C@H]1CC[C@H]2[C@@H]3[C@H](O)C[C@@H]4C[C@H](O)CC[C@]4(C)[C@H]3C[C@H](O)[C@]12C.O [Zwitterionic Detergent, CHAPS hydrate] | 15 | 2.5 | 0 | 0 | 0 | 0 | 0 |  |
| Polylysine |  |  |  |  |  |  |  | Visual Inspection ([3]; TSB growth medium with Acumer 4200 and polylysine): does not function as an antimicrobial; also recorded: Turbid; Visual Inspection ([3]; TSB growth medium with the substance alone): able to suppress microbial growth; also recorded: Clear (polylysine prevented growth) |
| Tergitol 15-S-7 [Non-ionic Detergent] |  |  |  |  |  |  |  | Foam Height [4, 5]: 37.5; Foam Height ([4]; Time 1 min): 37.5; Foam Height ([4]; Time 5 min): 36; Foam Height ([4]; Time 15 min): 22.5; Foam Height ([4]; Time 30 min): 20; Foam Height ([4]; Time 3 hours): 14; Foam Height ([4]; Time 24 hours): 2 |
| acidic sophorolipids non-acetylated [Glycolipid Biosurfactant Type-1] | 2.5 | 1 | 1 | 1 | 1 | 0 | 0 |  |
| lactonic (di-acetylated) sophorolipids [Glycolipid Biosurfactant Type-2] | 2.5 | 2.5 | 2 | 1 | 1 | 0 | 0 |  |
